Laboratory results as given in patent US11000033B2, “Ketone or oxime compound, and herbicide” (NISSAN CHEMICAL CORPORATION, priority 2014, dated 2021).

Assays:
Format in all cases: in vivo
[1] = tested on: Echinochloa crus-galli var. crus-galli; assay: Test Example 4: herbicidal effect by soil treatment (symbol H)
Outline: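 Seeds were sown in sterilized diluvial soil, covered with about 1.5 cm of soil, and the soil surface was sprayed with a water-diluted emulsion of the compound at a predetermined rate. Plants grew in a greenhouse at 25° C. to 30° C.; effects were scored visually 3 weeks after application.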

Monochoria vaginalis = assay: Test Example 2: herbicidal activity, application during weed generation in submerged conditions (symbol C); details: Table 23; application herbicide amount 320 g/ha; grade 0-5 by criteria of Test Example 1
Outline: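 Weeds emerging under flooded conditions were treated with compound formulated as an emulsion and diluted with water to the intended herbicide amount, poured onto the surface of 4 cm standing water. Seeds had been co-sown in alluvial soil; plants grew at 25° C. to 30° C. and were assessed after 3 weeks.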

[2] = tested on: Echinochloa crus-galli var. crus-galli; assay: Test Example 5: herbicidal effect by foliage application, plastic box (symbol H); details: 320 g/ha, 3 weeks after application
Outline: (§1)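 Sowing in sterilized diluvial soil, 14 days' greenhouse growth at 25° C. to 30° C., then uniform small-sprayer foliar application of aqueous emulsion dilution; plants scored three weeks afterwards.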

Abutilon theophrasti = assay: Test Example 5: herbicidal effect by foliage application, plastic box (symbol M); details: 320 g/ha, 3 weeks after application
Outline: as §1

Stellaria media = assay: Test Example 5: herbicidal effect by foliage application, plastic box (symbol P); details: 320 g/ha, 3 weeks after application
Outline: as §1

[3] = application herbicide amount 320 g/ha

C=CCOC1=C(c2c(C)cc(C)cc2C)C(=O)C(CC(C)=NOC)C1 (stereo not shown) [1-007]
H (Echinochloa crus-galli var. crus-galli) herbicidal effect grade [1, 3]: 0 (Herbicidal ratio of 5% or lower (almost no effect))
Herbicidal effect grade, C: Monochoria vaginalis (Monochoria vaginalis): 0 (Herbicidal ratio of 5% or lower (almost no effect))
H: Echinochloa crus-galli var. crus-galli, herbicidal effect grade [2]: 0 (Herbicidal ratio of 5% or lower (almost no effect))
M: Abutilon theophrasti, herbicidal effect grade (Abutilon theophrasti): 0 (Herbicidal ratio of 5% or lower (almost no effect))
P: Stellaria media, herbicidal effect grade (Stellaria media): 0 (Herbicidal ratio of 5% or lower (almost no effect))

CC(CC1CC(O)=C(c2c(C)cc(C)cc2C)C1=O)=NOCc1cccc(Cl)c1 (stereo not shown) [1-114]
H: Echinochloa crus-galli var. crus-galli, herbicidal effect grade ([1]; 320 g/ha): 0 (Herbicidal ratio of 5% or lower (almost no effect))
Herbicidal effect grade, C: Monochoria vaginalis (Monochoria vaginalis): 4 (Herbicidal ratio of 70% or higher and lower than 90%)
H: Echinochloa crus-galli var. crus-galli, herbicidal effect (criteria 0-5) [2]: 5 (Herbicidal ratio of 90% or more (almost completely withered))
M: Abutilon theophrasti, herbicidal effect (criteria 0-5) (Abutilon theophrasti): 1 (Herbicidal ratio of 5% or higher and lower than 20%)
P: Stellaria media, herbicidal effect (criteria 0-5) (Stellaria media): 3 (Herbicidal ratio of 40% or higher and lower than 70%)

CCCCCCCCS(=O)(=O)OC1=C(c2c(C)cc(C)cc2C)C(=O)C(CC(C)=NOC)C1 (stereo not shown) [1-107]
H: Echinochloa crus-galli var. crus-galli, herbicidal effect grade ([1]; 320 g/ha): 5 (Herbicidal ratio of 90% or more (almost completely withered))
Herbicidal effect grade, C: Monochoria vaginalis (Monochoria vaginalis): 0 (Herbicidal ratio of 5% or lower (almost no effect))
H: Echinochloa crus-galli var. crus-galli, herbicidal effect (criteria 0-5) [2]: 5 (Herbicidal ratio of 90% or more (almost completely withered))
M: Abutilon theophrasti, herbicidal effect (criteria 0-5) (Abutilon theophrasti): 1 (Herbicidal ratio of 5% or higher and lower than 20%)
P: Stellaria media, herbicidal effect (criteria 0-5) (Stellaria media): 0 (Herbicidal ratio of 5% or lower (almost no effect))

CC(CC1CC(O)=C(c2c(C)cc(C)cc2C)C1=O)=NOCC1CC1(F)F (stereo not shown) [1-109]
H: Echinochloa crus-galli var. crus-galli, herbicidal effect grade ([1]; 320 g/ha): 5 (Herbicidal ratio of 90% or more (almost completely withered))
Herbicidal effect grade, C: Monochoria vaginalis (Monochoria vaginalis): 2 (Herbicidal ratio of 20% or higher and lower than 40%)
H: Echinochloa crus-galli var. crus-galli, herbicidal effect (criteria 0-5) [2]: 5 (Herbicidal ratio of 90% or more (almost completely withered))
M: Abutilon theophrasti, herbicidal effect (criteria 0-5) (Abutilon theophrasti): 3 (Herbicidal ratio of 40% or higher and lower than 70%)
P: Stellaria media, herbicidal effect (criteria 0-5) (Stellaria media): 3 (Herbicidal ratio of 40% or higher and lower than 70%)

CCC(CC1CC(O)=C(c2c(C)cc(-c3ccccc3)cc2OC)C1=O)=NOC (mixture of isomers) [13-004]
H: Echinochloa crus-galli var. crus-galli, herbicidal effect grade [1, 3]: 5 (Herbicidal ratio of 90% or more (almost completely withered))
Herbicidal effect grade, C: Monochoria vaginalis (Monochoria vaginalis): 4 (Herbicidal ratio of 70% or higher and lower than 90%)
H: Echinochloa crus-galli var. crus-galli, herbicidal effect grade [2]: 5 (Herbicidal ratio of 90% or more (almost completely withered))
M: Abutilon theophrasti, herbicidal effect grade (Abutilon theophrasti): 1 (Herbicidal ratio of 5% or higher and lower than 20%)
P: Stellaria media, herbicidal effect grade (Stellaria media): 2 (Herbicidal ratio of 20% or higher and lower than 40%)

CC#Cc1cc(C)c(C2=C(O)CC(CC(C)=NOCC(F)(F)F)C2=O)c(C)c1 (stereo not shown) [9-011]
Herbicidal effect grade, H: Echinochloa crus-galli var. crus-galli [1, 3]: 5 (Herbicidal ratio of 90% or more (almost completely withered))
Herbicidal effect grade, C: Monochoria vaginalis (Monochoria vaginalis): 4 (Herbicidal ratio of 70% or higher and lower than 90%)
H: Echinochloa crus-galli var. crus-galli, herbicidal effect grade [2]: 5 (Herbicidal ratio of 90% or more (almost completely withered))
M: Abutilon theophrasti, herbicidal effect grade (Abutilon theophrasti): 2 (Herbicidal ratio of 20% or higher and lower than 40%)
P: Stellaria media, herbicidal effect grade (Stellaria media): 0 (Herbicidal ratio of 5% or lower (almost no effect))

CON=C(C)CC1CC(OC(=O)c2cc(C)on2)=C(c2c(C)cc(C)cc2C)C1=O (stereo not shown) [1-100]
H: Echinochloa crus-galli var. crus-galli, herbicidal effect grade ([1]; 320 g/ha): 5 (Herbicidal ratio of 90% or more (almost completely withered))
Herbicidal effect grade, C: Monochoria vaginalis (Monochoria vaginalis): 3 (Herbicidal ratio of 40% or higher and lower than 70%)
H: Echinochloa crus-galli var. crus-galli, herbicidal effect (criteria 0-5) [2]: 5 (Herbicidal ratio of 90% or more (almost completely withered))
M: Abutilon theophrasti, herbicidal effect (criteria 0-5) (Abutilon theophrasti): 4 (Herbicidal ratio of 70% or higher and lower than 90%)
P: Stellaria media, herbicidal effect (criteria 0-5) (Stellaria media): 0 (Herbicidal ratio of 5% or lower (almost no effect))

CC(CC1CC(O)=C(c2c(C)cc(C)cc2C)C1=O)=NOCCS(C)(=O)=O (stereo not shown) [1-110]
H: Echinochloa crus-galli var. crus-galli, herbicidal effect grade ([1]; 320 g/ha): 5 (Herbicidal ratio of 90% or more (almost completely withered))
Herbicidal effect grade, C: Monochoria vaginalis (Monochoria vaginalis): 0 (Herbicidal ratio of 5% or lower (almost no effect))
H: Echinochloa crus-galli var. crus-galli, herbicidal effect (criteria 0-5) [2]: 5 (Herbicidal ratio of 90% or more (almost completely withered))
M: Abutilon theophrasti, herbicidal effect (criteria 0-5) (Abutilon theophrasti): 0 (Herbicidal ratio of 5% or lower (almost no effect))
P: Stellaria media, herbicidal effect (criteria 0-5) (Stellaria media): 3 (Herbicidal ratio of 40% or higher and lower than 70%)

CON=C(C)CC1CC(OC(=O)CN(C)C(=O)c2ccccc2)=C(c2c(C)cc(C)cc2C)C1=O (stereo not shown) [1-139]
H: Echinochloa crus-galli var. crus-galli, herbicidal effect grade ([1]; 320 g/ha): 5 (Herbicidal ratio of 90% or more (almost completely withered))
Herbicidal effect grade, C: Monochoria vaginalis (Monochoria vaginalis): 1 (Herbicidal ratio of 5% or higher and lower than 20%)
H: Echinochloa crus-galli var. crus-galli, herbicidal effect (criteria 0-5) [2]: 5 (Herbicidal ratio of 90% or more (almost completely withered))
M: Abutilon theophrasti, herbicidal effect (criteria 0-5) (Abutilon theophrasti): 2 (Herbicidal ratio of 20% or higher and lower than 40%)
P: Stellaria media, herbicidal effect (criteria 0-5) (Stellaria media): 3 (Herbicidal ratio of 40% or higher and lower than 70%)

CON=C(C)CC1CC(OC(=O)CSc2ccccc2)=C(c2c(C)cc(C)cc2C)C1=O (stereo not shown) [1-134]
H: Echinochloa crus-galli var. crus-galli, herbicidal effect grade ([1]; 320 g/ha): 5 (Herbicidal ratio of 90% or more (almost completely withered))
Herbicidal effect grade, C: Monochoria vaginalis (Monochoria vaginalis): 3 (Herbicidal ratio of 40% or higher and lower than 70%)
H: Echinochloa crus-galli var. crus-galli, herbicidal effect (criteria 0-5) [2]: 5 (Herbicidal ratio of 90% or more (almost completely withered))
M: Abutilon theophrasti, herbicidal effect (criteria 0-5) (Abutilon theophrasti): 2 (Herbicidal ratio of 20% or higher and lower than 40%)
P: Stellaria media, herbicidal effect (criteria 0-5) (Stellaria media): 2 (Herbicidal ratio of 20% or higher and lower than 40%)

CON=C(C)CON=C(C)CC1CC(O)=C(c2c(C)cc(C)cc2C)C1=O (stereo not shown) [1-105]
H: Echinochloa crus-galli var. crus-galli, herbicidal effect grade ([1]; 320 g/ha): 5 (Herbicidal ratio of 90% or more (almost completely withered))
Herbicidal effect grade, C: Monochoria vaginalis (Monochoria vaginalis): 3 (Herbicidal ratio of 40% or higher and lower than 70%)
H: Echinochloa crus-galli var. crus-galli, herbicidal effect (criteria 0-5) [2]: 5 (Herbicidal ratio of 90% or more (almost completely withered))
M: Abutilon theophrasti, herbicidal effect (criteria 0-5) (Abutilon theophrasti): 1 (Herbicidal ratio of 5% or higher and lower than 20%)
P: Stellaria media, herbicidal effect (criteria 0-5) (Stellaria media): 1 (Herbicidal ratio of 5% or higher and lower than 20%)

COCCON=C(C)CC1CC(O)=C(c2c(C)cc(-n3cc(Cl)cn3)cc2C)C1=O (stereo not shown) [9-016]
Herbicidal effect grade, H: Echinochloa crus-galli var. crus-galli [1, 3]: 5 (Herbicidal ratio of 90% or more (almost completely withered))
Herbicidal effect grade, C: Monochoria vaginalis (Monochoria vaginalis): 1 (Herbicidal ratio of 5% or higher and lower than 20%)
H: Echinochloa crus-galli var. crus-galli, herbicidal effect grade [2]: 5 (Herbicidal ratio of 90% or more (almost completely withered))
M: Abutilon theophrasti, herbicidal effect grade (Abutilon theophrasti): 0 (Herbicidal ratio of 5% or lower (almost no effect))
P: Stellaria media, herbicidal effect grade (Stellaria media): 3 (Herbicidal ratio of 40% or higher and lower than 70%)

CON=C(C)CC1CC(OS(C)(=O)=O)=C(c2c(C)cc(C)cc2C)C1=O (stereo not shown) [1-006]
H (Echinochloa crus-galli var. crus-galli) herbicidal effect grade [1, 3]: 5 (Herbicidal ratio of 90% or more (almost completely withered))
Herbicidal effect grade, C: Monochoria vaginalis (Monochoria vaginalis): 3 (Herbicidal ratio of 40% or higher and lower than 70%)
H: Echinochloa crus-galli var. crus-galli, herbicidal effect grade [2]: 5 (Herbicidal ratio of 90% or more (almost completely withered))
M: Abutilon theophrasti, herbicidal effect grade (Abutilon theophrasti): 4 (Herbicidal ratio of 70% or higher and lower than 90%)
P: Stellaria media, herbicidal effect grade (Stellaria media): 0 (Herbicidal ratio of 5% or lower (almost no effect))

CCC(CC1CC(O)=C(c2c(C)cc(C)cc2OC)C1=O)=NOC (mixture of isomers) [13-003]
H: Echinochloa crus-galli var. crus-galli, herbicidal effect grade [1, 3]: 5 (Herbicidal ratio of 90% or more (almost completely withered))
Herbicidal effect grade, C: Monochoria vaginalis (Monochoria vaginalis): 3 (Herbicidal ratio of 40% or higher and lower than 70%)
H: Echinochloa crus-galli var. crus-galli, herbicidal effect grade [2]: 5 (Herbicidal ratio of 90% or more (almost completely withered))
M: Abutilon theophrasti, herbicidal effect grade (Abutilon theophrasti): 4 (Herbicidal ratio of 70% or higher and lower than 90%)
P: Stellaria media, herbicidal effect grade (Stellaria media): 1 (Herbicidal ratio of 5% or higher and lower than 20%)
